From US20090124579A1, “Systems and Methods For Determination of Compounds for Stimulation or Inhibition of Neocalcification” (UNIVERSITY OF SOUTH CAROLINA, priority 2007, published 2009)

How the values were obtained:
matrix vesicles (MV) = assay: Mineralization of matrix vesicles (MV) incubated in synthetic cartilage lymph (SCL), microplate-based biomineralization assay; format: biochemical, chicken
Procedure: Zn^2+ causes Anx-5 to bind to acidic phospholipids with even higher affinity than does Ca^2+; however, its effect is very different.
(§1) Mineral formation was measured by incubating MVs (40 μg protein/ml) or complex (60 μg/ml) in synthetic cartilage lymph and assayed by a microplate-based biomineralization modeling system and assay as described herein. MVs were isolated from chicken GP cartilage. The PS.Ca.Pi complex was synthesized from emulsions of PS prepared by sonication in a synthetic intracellular phosphate buffer. Where indicated, pure native placental human annexin 5 (Anx-H5) was added.
(§2) Incubation was in pH 7.5 SCL at 37° C., which follows a characteristic sigmoid pattern in which a definable lag period precedes discernible mineral formation. There then follows a period of rapid mineral formation, a transient period when the rate declines, and an extended period at a progressively slower rate.

Anx-H5-containing ACP = molecular target: T1, Anx-H5-containing ACP (Homo sapiens, UniProt P08758); assay: Mineral formation by Anx-H5-containing ACP in SCL; format: biochemical; conditions: low levels (5 μM) of Zn^2+ in SCL
T1 sequence (P08758 2-320 limits assumed): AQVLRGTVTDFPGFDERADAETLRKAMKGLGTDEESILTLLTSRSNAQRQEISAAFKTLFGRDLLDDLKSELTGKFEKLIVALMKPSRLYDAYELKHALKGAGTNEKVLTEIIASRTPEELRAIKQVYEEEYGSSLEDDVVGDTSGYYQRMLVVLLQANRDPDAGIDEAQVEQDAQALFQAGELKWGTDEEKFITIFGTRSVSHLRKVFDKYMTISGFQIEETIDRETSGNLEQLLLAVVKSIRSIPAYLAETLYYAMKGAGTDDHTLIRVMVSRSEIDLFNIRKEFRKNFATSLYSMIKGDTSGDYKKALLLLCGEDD

Anx-A5 Ca^2+ channel = molecular target: T2, Anx-A5 Ca^2+ channel (Gallus gallus, UniProt P17153); assay: Ca^2+ channel currents of MV or purified Anx-A5 fused with planar PS.PE (1:1) bilayers; format: biochemical, avian; conditions: MV or purified Anx-A5 in planar PS.PE (1:1) bilayers
T2 construct: from tissue; host or cells: avian cartilage
Procedure: To determine if the inhibitory effect of Zn^2+ on MV calcification was due to interaction with Anx-A5, experiments were conducted to investigate the nature of the MV Ca^2+ channel. […] When MVs or purified Anx-A5 were fused with planar PS.PE (1:1) bilayers, a multiconductance Ca^2+ channel was evident, as shown in FIG. 6A. […] The finding that Anx-A5 Ca^2+ channel gating is modulated by Zn^2+ raised the possibility that it may be an important regulator of MV Ca^2+ channel activity in vivo. Thus, it was desirable to determine how Anx-5 helps promote MV mineralization and how Zn^2+ affects the structure of Anx-A5.

ACP = conditions: low levels of Zn^2+
[1] = molecular target: T3, Anx-H5.PS.Ca.Pi complexes (Homo sapiens, UniProt P08758); assay: Kinetics of mineralization of Anx-H5 containing nucleators with or without phosphoserine; format: biochemical; conditions: 100 μM phosphoserine; both Anx-H5-containing ACP and PS.Ca.Pi complexes
T3 sequence (P08758 2-320 limits assumed): T1 sequence (P08758 2-320 limits assumed)
From the text: Phosphoserine was examined as a test compound. Phosphoserine can occupy PS head-group binding sites in Anx-H5, acting as a competitive inhibitor of PS binding. […] Since Anx-H5 trimer formation occurs only on phospholipid bilayers, phosphoserine competes for PS binding sites in Anx-H5, interfering with trimer formation, and thereby inhibiting de novo mineralization.
FIG. 18 illustrates the results of in vitro assays showing the delay of onset of mineralization of Anx-H5 containing nucleators by incorporation of O-phospho-L-serine

PS.Ca.Pi complex = assay: Mineral formation by synthetic PS.Ca.Pi complex seeded into SCL, microplate-based biomineralization assay; format: biochemical
Procedure: as §1, §2
Results are illustrated in FIGS. 9A and 9B. […] To document that the effect of avian Anx-A5 could be equally matched by human Anx-H5, the kinetics of mineral formation were examined when both avian MV and the Mg^2+-containing PS.Ca.Pi complex were seeded into SCL in the absence and presence of purified native human placental Anx H5. […]

[2] = test system: PS.PE.Ca.Pi and PS.Ca.Pi complexes; assay: Mineral formation by synthetic PS and PE containing Ca.Pi complexes in SCL; format: biochemical
Procedure: FIG. 15 illustrates the effect of Anx-H5 on mineral formation by synthetic PS and PE containing Ca.Pi complexes as determined through in vitro modeling of the system. Mineralization was measured by incubating the various complexes as shown (about 50 μg/ml) in SCL using a microplate-based biomineralization assay system. The complexes were prepared as described above in Example 3. Emulsions of PS or PS.PE (1:1) were generated by sonication to generate approximately 60 nm vesicles. Anx-H5 was added before CaCl2 was titrated to form the complex.

c1cnc2c(c1)ccc1cccnc12 [1,10-phenanthroline, reference compound]
ability of Zn^2+-inhibited MV to mineralize (matrix vesicles (MV); metal ion chelator added to Zn^2+-inhibited MV): restored the ability to mineralize

[Zn+2] [Zn^2+, zinc]
mineral formation by Anx-H5-containing ACP (Anx-H5-containing ACP): marked inhibition
Ca^2+ currents (Anx-A5 Ca^2+ channel): blocked
ACP-induced mineral formation (ACP): weak inhibition
MV mineralization (matrix vesicles (MV); low levels of Zn^2+ (5 μM) in SCL): completely inhibit

N[C@@H](COP(=O)(O)O)C(=O)O [phosphoserine, O-phospho-L-serine]
time needed for onset of mineralization [1]: almost tripling

Anx-H5: pure native placental human annexin 5
mineral formation induced by protein alone (PS.Ca.Pi complex; Anx-H5 by itself added to SCL, without PS): failed to induce any mineral formation
ability of MV to induce and propagate mineral formation (matrix vesicles (MV); Anx-H5 added to freshly isolated MV): significantly enhanced
effect on PS.PE.Ca.Pi-induced mineralization ([2]; Anx-H5 incorporated into PS.PE.Ca.Pi complex): overcome this inhibitory effect of PE
effect on mineral formation of incorporation into PS.Ca.Pi complex ([2]; complexes about 50 μg/ml in SCL): obvious stimulatory effect

phosphatidylethanolamine [PE, reference compound]
ability of PS.Ca.Pi to nucleate mineral formation ([2]; equimolar amounts incorporated into PS.Ca.Pi (PS.PE 1:1)): profound inhibition

B1: Anx-A5: avian annexin 5 (avian cartilage) (protein, UniProt P17153 1-321, looked up)
Annexin A5: MAKYTRGTVTAFSPFDARADAEALRKAMKGMGTDEETILKILTSRNNAQRQEIASAFKTLFGRDLVDDLKSELTGKFETLMVSLMRPARIFDAHALKHAIKGAGTNEKVLTEILASRTPAEVQNIKQVYMQEYEANLEDKITGETSGHFQRLLVVLLQANRDPDGRVDEALVEKDAQVLFRAGELKWGTDEETFITILGTRSVSHLRRVFDKYMTISGFQIEETIDRETSGDLEKLLLAVVKCIRSVPAYFAETLYYSMKGAGTDDDTLIRVMVSRSEIDLLDIRHEFRKNFAKSLYQMIQKDTSGDYRKALLLLCGGDDE
activation of PS.Ca.Pi complex (PS.Ca.Pi complex; complex prepared from Mg^2+-containing phosphate buffer): synergistically activates
